Like-named read-outs stand apart in the source and are kept apart here.
Target: T1, Androgen Receptor (Homo sapiens, UniProt P10275)
T1 construct: endogenous in cells; host or cells: VCaP cells
T1 sequence (P10275 1-920): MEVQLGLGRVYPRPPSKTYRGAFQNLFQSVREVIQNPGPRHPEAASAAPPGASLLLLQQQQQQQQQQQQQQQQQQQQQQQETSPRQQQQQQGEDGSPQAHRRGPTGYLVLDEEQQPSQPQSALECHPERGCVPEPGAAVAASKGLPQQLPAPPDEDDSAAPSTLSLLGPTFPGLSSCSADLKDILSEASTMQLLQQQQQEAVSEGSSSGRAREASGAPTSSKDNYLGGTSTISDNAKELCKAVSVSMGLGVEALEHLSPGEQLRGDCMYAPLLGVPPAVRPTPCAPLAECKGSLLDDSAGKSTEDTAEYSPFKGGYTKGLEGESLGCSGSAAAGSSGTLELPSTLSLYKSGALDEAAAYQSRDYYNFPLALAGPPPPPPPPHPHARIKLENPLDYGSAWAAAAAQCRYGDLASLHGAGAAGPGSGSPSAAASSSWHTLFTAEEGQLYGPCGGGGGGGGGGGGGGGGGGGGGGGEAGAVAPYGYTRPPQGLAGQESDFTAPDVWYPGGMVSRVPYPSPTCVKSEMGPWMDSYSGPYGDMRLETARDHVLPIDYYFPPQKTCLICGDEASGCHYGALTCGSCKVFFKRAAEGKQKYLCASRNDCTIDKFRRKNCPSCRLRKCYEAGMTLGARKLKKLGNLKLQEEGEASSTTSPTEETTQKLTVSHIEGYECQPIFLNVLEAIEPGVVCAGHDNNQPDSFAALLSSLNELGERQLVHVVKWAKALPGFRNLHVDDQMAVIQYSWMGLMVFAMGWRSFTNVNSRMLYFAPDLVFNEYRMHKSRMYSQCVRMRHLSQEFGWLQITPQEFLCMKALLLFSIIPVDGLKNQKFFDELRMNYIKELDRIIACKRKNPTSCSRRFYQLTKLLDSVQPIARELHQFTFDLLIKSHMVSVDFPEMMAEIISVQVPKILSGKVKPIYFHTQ
Test: Androgen Receptor ELISA assay (PathScan AR ELISA) in VCaP cells: AR degradation, Dmax and DC50
Type: cell-based
Settings: Table 36; for DC50: read-out: VCaP DC50; for Dmax: VCaP
In short: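 After 24 h exposure of VCaP cells (charcoal-stripped serum, 0.1 nM R1881 agonist, 0.1% DMSO) to seven half-log compound concentrations, residual AR in lysates was measured by PathScan ELISA (TMB absorbance, 450 nm). Cells were plated at 30,000/well and grown at least 3 days beforehand.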

[1] = VCaP cells, read-out: VCaP Dmax (%)
[2] = read-out: VCaP Dmax (%), VCaP cells

Row | SMILES | DC50 (VCaP cells) | Dmax [1] | Dmax [2]
1 | Cc1ncsc1-c1ccc([C@H](C)NC(=O)[C@@H]2C[C@@H](O)CN2C(=O)[C@@H](NC(=O)CCCCc2ccc(C(=O)N[C@H]3C(C)(C)[C@H](Oc4ccc(C#N)c(Cl)c4)C3(C)C)cc2)C(C)(C)C)cc1 [Example 755, (2S,4R)-1-((S)-2-(5-(4-(((1r,3S)-3-(3-chloro-4-cyanophenoxy)-2,2,4,4-tetramethylcyclobutyl)carbamoyl)phenyl)pentan-amido)-3,3-dimethylbutanoyl)-4-hydroxy-N-((S)-1-(4-(4-methylthiazol-5-yl)phenyl)ethyl)pyrrolidine-2-carboxamide] | > 0.501 µM | 26 to 50% | –
2 | CC(C)(C)[C@H](NC(=O)COCCN1CCN(c2ccc(C(=O)N[C@H]3C(C)(C)[C@H](Oc4ccc(C#N)c(Cl)c4)C3(C)C)cn2)CC1)C(=O)N1C[C@H](O)C[C@H]1C(=O)NCc1ccc(C2CC2)cc1 [Example 757, N-((1r,3r)-3-(3-chloro-4-cyanophenoxy)-2,2,4,4-tetramethylcyclobutyl)-6-(4-(2-(2-(((S)-1-((2S,4R)-2-((4-cyclopropylbenzyl)car-bamoyl)-4-hydroxypyrrolidin-1-yl)-3,3-dimethyl-1-oxobutan-2-yl)amino)-2-oxoethoxy)ethyl)pipera-zin-1-yl)nicotinamide] | > 0.501 µM | 26 to 50% | –
3 | CC(C)(C)[C@H](NC(=O)COCCN1CCN(c2ccc(C(=O)N[C@H]3C(C)(C)[C@H](Oc4ccc(C#N)c(Cl)c4)C3(C)C)cn2)CC1)C(=O)N1C[C@H](O)C[C@H]1C(=O)NCc1ccc(C2CCC2)cc1 [Example 758, N-((1r,3r)-3-(3-chloro-4-cyanophenoxy)-2,2,4,4-tetramethylcyclobutyl)-6-(4-(2-(2-(((S)-1-((2S,4R)-2-((4-cyclobutylbenzyl)carbam-oyl)-4-hydroxypyrrolidin-1-yl)-3,3-dimethyl-1-oxobutan-2-yl)amino)-2-oxoethoxy)ethyl)pipera-zin-1-yl)nicotinamide] | > 0.501 µM | < 25% | –
4 | CC(C)(C)[C@H](NC(=O)COCCN1CCN(c2ccc(C(=O)N[C@H]3C(C)(C)[C@H](Oc4ccc(C#N)c(Cl)c4)C3(C)C)cn2)CC1)C(=O)N1C[C@H](O)C[C@H]1C(=O)NCc1ccc(C2CCCC2)cc1 [Example 759, N-((1r,3r)-3-(3-chloro-4-cyanophenoxy)-2,2,4,4-tetramethylcyclobutyl)-6-(4-(2-(2-(((S)-1-((2S,4R)-2-((4-cyclopentylbenzyl)car-bamoyl)-4-hydroxypyrrolidin-1-yl)-3,3-dimethyl-1-oxobutan-2-yl)amino)-2-oxoethoxy)ethyl)pipera-zin-1-yl)nicotinamide] | > 0.501 µM | < 25% | –
5 | CC(C)(C)[C@H](NC(=O)COCCN1CCN(c2ccc(C(=O)N[C@H]3C(C)(C)[C@H](Oc4ccc(C#N)c(Cl)c4)C3(C)C)cn2)CC1)C(=O)N1C[C@H](O)C[C@H]1C(=O)NCc1ccc(C2CCOCC2)cc1 [Example 760, N-((1r,3r)-3-(3-chloro-4-cyanophenxoy)-2,2,4,4-tetramethylcyclobutyl) 6-(4-(2-(2-(((S)-1-((2S,4R)-4-hydroxy-2-((4-(tetrahydro-2H-pyran-4-yl)benzyl)carbamoyl)pyrrolidin-1-yl)-3,3-dimethyl-1-oxobutan-2-yl)amino)-2-oxoethoxy)ethyl)pipera-zin-1-yl)nicotinamide] | > 0.501 µM | 26 to 50% | –
6 | Cc1ncsc1-c1ccc(CNC(=O)[C@@H]2C[C@@H](O)CN2C(=O)[C@@H](C(C)C)N2Cc3ccc(N4CCN(CCCc5ccc(C(=O)N[C@H]6C(C)(C)[C@H](Oc7ccc(C#N)c(C(F)(F)F)c7)C6(C)C)cc5)CC4)cc3C2=O)cc1 [Example 761, (2S,4R)-1-((R)-2-(6-(4-(3-(4-(((1r,3r)-3-(4-cyano-3-(trifluoromethyl)phenxoy)-2,2,4,4-tetramethylcyclobutyl)carbamoyl)phenyl)propyl)piperazin-1-yl)-1-oxoisoindolin-2-yl)-3-methylbutanoyl)-4-hydroxy-N-(4-(4-methylthiazol-5-yl)benzyl)pyrrolidine-2-carboxamide] | > 0.501 µM | – | < 25%
7 | Cc1ncsc1-c1ccc(CNC(=O)[C@@H]2C[C@@H](O)CN2C(=O)[C@H](C(C)C)N2Cc3ccc(N4CCN(CCCc5ccc(C(=O)N[C@H]6C(C)(C)[C@H](Oc7ccc(C#N)c(C(F)(F)F)c7)C6(C)C)cc5)CC4)cc3C2=O)cc1 [Example 762, (2S,4R)-1-((S)-2-(6-(4-(3-(4-(((1r,3r)-3-(4-cyano-3-(trifluoromethyl)phenoxy)-2,2,4,4-tetramethylcyclobutyl)carbamoyl)phenyl)propyl)piperazin-1-yl)-1-oxoisoindolin-2-yl)-3-methylbutanoyl)-4-hydroxy-N-(4-(4-methylthiazol-5-yl)benzyl)pyrrolidine-2-carboxamide] | > 0.501 µM | – | < 25%
8 | Cc1ncsc1-c1ccc([C@H](C)NC(=O)[C@@H]2C[C@@H](O)CN2C(=O)[C@@H](NC(=O)COCCN2CCN(c3ccc(C(=O)N[C@H]4C[C@H](Oc5ccc(C#N)c(Cl)c5)C4)cn3)CC2)C(C)(C)C)cc1 [Example 765, N-((1r,3r)-3-(3-chloro-4-cyanophenoxy)cyclobutyl)-6-(4-(2-(2-(((S)-1-((2S,4R)-4-hydroxy-2-(((S)-1-(4-(4-methylthiazol-5-yl)phenyl)ethyl)carbam-oyl)pyrrolidin-1-yl)-3,3-dimethyl-1-oxobutan-2-yl)amino)-2-oxoethoxy)ethyl)pipera-zin-1-yl)nicotinamide] | > 0.501 µM | < 25% | –
9 | Cc1ncsc1-c1ccc([C@H](C)NC(=O)[C@@H]2C[C@@H](O)CN2C(=O)[C@@H](NC(=O)CN2CCN(CCCOCc3cc(C(=O)N[C@@H](C)Cn4ccc(-c5ccc(C#N)c(C(F)(F)F)c5)n4)n[nH]3)CC2)C(C)(C)C)cc1 [Example 766] | > 0.501 µM | 26 to 50% | –

Second part, the compound after the results:

Row | DC50 (VCaP cells) | Dmax [1] | Dmax [2] | SMILES
10 | > 0.501 µM | < 25% | – | CC(C)[C@@H](C(=O)N1C[C@H](O)C[C@H]1C(=O)NCc1ccc(Cl)cc1N1CCN(CCCc2ccc(C(=O)N[C@H]3C(C)(C)[C@H](Oc4ccc(C#N)c(Cl)c4)C3(C)C)cc2)CC1)N1Cc2ccccc2C1=O [Example 754, (2S,4R)-N-(4-chloro-2-(4-(3-(4-(((1r,3r)-3-(3-chloro-4-cyanophenoxy)-2,2,4,4-tetramethylcyclobutyl)carbamoyl)phenyl)propyl)piperazin-1-yl)benzyl)-4-hydroxy-1-((S)-3-methyl-2-(1-oxoisoindolin-2-yl)butanoyl)pyrrolidine-2-carboxamide]
11 | 0.051 to 0.5 µM | 51 to 70% | – | Cc1ncsc1-c1ccc([C@H](C)NC(=O)[C@@H]2C[C@@H](O)CN2C(=O)[C@@H](NC(=O)CCCCCCCCc2ccc(C(=O)N[C@H]3C(C)(C)[C@H](Oc4ccc(C#N)c(Cl)c4)C3(C)C)cc2)C(C)(C)C)cc1 [Example 756, (2S,4R)-1-((S)-2-(9-(4-(((1r,3r)-3-(3-chloro-4-cyanophenoxy)-2,2,4,4-tetramethylcyclobutyl)carbamoyl)phenyl)nonan-amido)-3,3-dimethylbutanoyl)-4-hydroxy-N-((S)-1-(4-(4-methylthiazol-5-yl)phenyl)ethyl)pyrrolidine-2-carboxamide]
12 | < 0.05 µM | > 71% | – | Cc1ncsc1-c1ccc([C@H](C)NC(=O)[C@@H]2C[C@@H](O)CN2C(=O)[C@@H](NC(=O)CCCCCCCc2ccc(C(=O)N[C@H]3C(C)(C)[C@H](Oc4ccc(C#N)c(Cl)c4)C3(C)C)cc2)C(C)(C)C)cc1 [Example 763, (2S,4R)-1-((S)-2-(8-(4-(((1r,3r)-3-(3-chloro-4-cyanophenoxy)-2,2,4,4-tetramethylcyclobutyl)carbamoyl)phenyl)octan-amido)-3,3-dimethylbutanoyl)-4-hydroxy-N-((S)-1-(4-(4-methylthiazol-5-yl)phenyl)ethyl)pyrrolidine-2-carboxamide]
13 | 0.051 to 0.5 µM | 51 to 70% | – | Cc1ncsc1-c1ccc([C@H](C)NC(=O)[C@@H]2C[C@@H](O)CN2C(=O)[C@@H](NC(=O)CCCCCCCCCc2ccc(C(=O)N[C@H]3C(C)(C)[C@H](Oc4ccc(C#N)c(Cl)c4)C3(C)C)cc2)C(C)(C)C)cc1 [Example 764, (2S,4R)-1-((S)-2-(10-(4-(((1r,3r)-3-(3-chloro-4-cyanophenoxy)-2,2,4,4-tetramethylcyclobutyl)carbamoyl)phenyl)decan-amido)-3,3-dimethylbutanoyl)-4-hydroxy-N-((S)-1-(4-(4-methylthiazol-5-yl)phenyl)ethyl)pyrrolidine-2-carboxamide]
